According to PubChem BioAssay (NCI):
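GI50 marks 50% less growth. TGI: concentration producing complete growth inhibition.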

Columns and labels:
Assay in all cases: NCI tumour cell line growth inhibition, 384-well format
786-0 renal = system: 786-0 renal
A498 renal = system: A498 renal
A549 NSCLC = system: A549 NSCLC
ACHN renal = system: ACHN renal
BT-549 breast = system: BT-549 breast
CAKI-1 renal = system: CAKI-1 renal
CCRF-CEM leukemia = system: CCRF-CEM leukemia
COLO 205 colon = system: COLO 205 colon
DU-145 prostate = system: DU-145 prostate
EKVX NSCLC = system: EKVX NSCLC
HCC-2998 colon = system: HCC-2998 colon
HCT-116 colon = system: HCT-116 colon
HCT-15 colon = system: HCT-15 colon
HL-60(TB) leukemia = system: HL-60(TB) leukemia
HOP-62 NSCLC = system: HOP-62 NSCLC
HOP-92 NSCLC = system: HOP-92 NSCLC
HS 578T breast = system: HS 578T breast
HT29 colon = system: HT29 colon
IGROV1 ovarian = system: IGROV1 ovarian
K-562 leukemia = system: K-562 leukemia
KM12 colon = system: KM12 colon
LOX IMVI melanoma = system: LOX IMVI melanoma
M14 melanoma = system: M14 melanoma
MALME-3M melanoma = system: MALME-3M melanoma
MCF7 breast = system: MCF7 breast
MDA-MB-435 melanoma = system: MDA-MB-435 melanoma
MDA-MB-468 breast = system: MDA-MB-468 breast
MOLT-4 leukemia = system: MOLT-4 leukemia
NCI-H226 lung = system: NCI-H226 lung
NCI-H23 lung = system: NCI-H23 lung
NCI-H322M lung = system: NCI-H322M lung
NCI-H460 NSCLC = system: NCI-H460 NSCLC
NCI-H522 lung = system: NCI-H522 lung
NCI/ADR-RES ovarian = system: NCI/ADR-RES ovarian
OVCAR-3 ovarian = system: OVCAR-3 ovarian
OVCAR-4 ovarian = system: OVCAR-4 ovarian
OVCAR-8 ovarian = system: OVCAR-8 ovarian
PC-3 prostate = system: PC-3 prostate
RPMI-8226 leukemia = system: RPMI-8226 leukemia
RXF 393 renal = system: RXF 393 renal
SF-268 CNS = system: SF-268 CNS
SF-295 CNS = system: SF-295 CNS
SF-539 CNS = system: SF-539 CNS
SK-MEL-2 melanoma = system: SK-MEL-2 melanoma
SK-MEL-28 melanoma = system: SK-MEL-28 melanoma
SK-MEL-5 melanoma = system: SK-MEL-5 melanoma
SK-OV-3 ovarian = system: SK-OV-3 ovarian
SN12C renal = system: SN12C renal
SNB-19 CNS = system: SNB-19 CNS
SNB-75 CNS = system: SNB-75 CNS
SW-620 colon = system: SW-620 colon
TK-10 renal = system: TK-10 renal
U251 glioblastoma = system: U251 glioblastoma
UACC-257 melanoma = system: UACC-257 melanoma
UACC-62 melanoma = system: UACC-62 melanoma

CC1=CC(=O)C=CC1=Nc1ccc(N(C)C)cc1 was tested, and the GI50 ([…]-0 renal) was 13 µM, the TGI (786-0 renal) was 25.7 µM and the GI50 (A498 renal) was 11.4 µM. It also gave a TGI (A498 renal) of 23.6 µM, a GI50 (A549 NSCLC) of 15.3 µM and a TGI (A549 NSCLC) of 28.8 µM. The GI50 (ACHN renal) was 5.29 µM, the TGI (ACHN renal) was 18.7 µM and the GI50 (BT-549 breast) was 6.14 µM. It also gave a TGI (BT-549 breast) of 18.6 µM, a GI50 (CAKI-1 renal) of 8.66 µM and a TGI (CAKI-1 renal) of 20.8 µM. For the same molecule, the GI50 (CCRF-CEM leukemia) was 1.43 µM, the TGI (CCRF-CEM leukemia) was 2.77 µM and the GI50 (COLO 205 colon) was 2.92 µM. For the same molecule, the TGI (COLO 205 colon) was 7.43 µM, the GI50 (DU-145 prostate) was 14 µM and the TGI (DU-145 prostate) was 27 µM. For the same molecule, the GI50 (EKVX NSCLC) was 11.3 µM, the TGI (EKVX NSCLC) was 23.5 µM and the GI50 (HCC-2998 colon) was 5.21 µM. It also gave a TGI (HCC-2998 colon) of 20.1 µM, a GI50 (HCT-116 colon) of 2.67 µM and a TGI (HCT-116 colon) of 8.2 µM. For the same molecule, the GI50 (HCT-15 colon) was 11.4 µM, the TGI (HCT-15 colon) was 23.6 µM and the GI50 (HL-60(TB) leukemia) was 1.33 µM. For the same molecule, the TGI (HL-60(TB) leukemia) was 2.62 µM, the GI50 (HOP-62 NSCLC) was 3.92 µM and the TGI (HOP-62 NSCLC) was 9.14 µM. For the same molecule, the GI50 (HOP-92 NSCLC) was 2.65 µM, the TGI (HOP-92 NSCLC) was 6.19 µM and the GI50 (HS 578T breast) was 12.3 µM. It also gave a TGI (HS 578T breast) of 24.8 µM, a GI50 (HT29 colon) of 14.4 µM and a TGI (HT29 colon) of 27.7 µM. For the same molecule, the GI50 (IGROV1 ovarian) was 12.1 µM, the TGI (IGROV1 ovarian) was 24.5 µM and the GI50 (K-562 leukemia) was 12.1 µM. The TGI (K-562 leukemia) was 24.5 µM, the GI50 (KM12 colon) was 12.6 µM and the TGI (KM12 colon) was 25.3 µM. It also gave a GI50 (LOX IMVI melanoma) of 11.6 µM, a TGI (LOX IMVI melanoma) of 23.9 µM and a GI50 (M14 melanoma) of 12.5 µM. The TGI (M14 melanoma) was 25 µM, the GI50 (MALME-3M melanoma) was 15.3 µM and the TGI (MALME-3M melanoma) was 28.6 µM. The GI50 (MCF7 breast) was 3.46 µM, the TGI (MCF7 breast) was 13.3 µM and the GI50 (MDA-MB-435 melanoma) was 2.52 µM. For the same molecule, the TGI (MDA-MB-435 melanoma) was 6.2 µM, the GI50 (MDA-MB-468 breast) was 0.361 µM and the TGI (MDA-MB-468 breast) was 1.34 µM. It also gave a GI50 (MOLT-4 leukemia) of 1.38 µM, a TGI (MOLT-4 leukemia) of 2.68 µM and a GI50 (NCI-H226 lung) of 8.38 µM. It also gave a TGI (NCI-H226 lung) of 20.6 µM, a GI50 (NCI-H23 lung) of 4.94 µM and a TGI (NCI-H23 lung) of 18 µM. The GI50 (NCI-H322M lung) was 17.6 µM, the TGI (NCI-H322M lung) was 31.5 µM and the GI50 (NCI-H460 NSCLC) was 16.4 µM. The TGI (NCI-H460 NSCLC) was 30.2 µM, the GI50 (NCI-H522 lung) was 2.21 µM and the TGI (NCI-H522 lung) was 10.4 µM. It also gave a GI50 (NCI/ADR-RES ovarian) of 6.51 µM, a TGI (NCI/ADR-RES ovarian) of 19.2 µM and a GI50 (OVCAR-3 ovarian) of 1.6 µM. It also gave a TGI (OVCAR-3 ovarian) of 3.06 µM, a GI50 (OVCAR-4 ovarian) of 2.58 µM and a TGI (OVCAR-4 ovarian) of 12.4 µM. For the same molecule, the GI50 (OVCAR-8 ovarian) was 3.49 µM, the TGI (OVCAR-8 ovarian) was 9.79 µM and the GI50 (PC-3 prostate) was 3.22 µM. The TGI (PC-3 prostate) was 10.4 µM, the GI50 (RPMI-8226 leukemia) was 1.76 µM and the TGI (RPMI-8226 leukemia) was 3.19 µM. It also gave a GI50 (RXF 393 renal) of 4.87 µM, a TGI (RXF 393 renal) of 16.6 µM and a GI50 (SF-268 CNS) of 16.5 µM. For the same molecule, the TGI (SF-268 CNS) was 30.1 µM, the GI50 (SF-295 CNS) was 15.3 µM and the TGI (SF-295 CNS) was 28.7 µM. It also gave a GI50 (SF-539 CNS) of 10.1 µM, a TGI (SF-539 CNS) of 21.7 µM and a GI50 (SK-MEL-2 melanoma) of 1.77 µM. For the same molecule, the TGI (SK-MEL-2 melanoma) was 3.26 µM, the GI50 (SK-MEL-28 melanoma) was 15.6 µM and the TGI (SK-MEL-28 melanoma) was 29 µM. The GI50 (SK-MEL-5 melanoma) was 6.37 µM, the TGI (SK-MEL-5 melanoma) was 19.9 µM and the GI50 (SK-OV-3 ovarian) was 15.5 µM. For the same molecule, the TGI (SK-OV-3 ovarian) was 29 µM, the GI50 (SN12C renal) was 11.6 µM and the TGI (SN12C renal) was 23.9 µM. It also gave a GI50 (SNB-19 CNS) of 15.3 µM, a TGI (SNB-19 CNS) of 28.7 µM and a GI50 (SNB-75 CNS) of 17.4 µM. For the same molecule, the TGI (SNB-75 CNS) was 31.2 µM, the GI50 (SW-620 colon) was 13.4 µM and the TGI (SW-620 colon) was 26.4 µM. It also gave a GI50 (TK-10 renal) of 10.7 µM, a TGI (TK-10 renal) of 22.6 µM and a GI50 (U251 glioblastoma) of 10.4 µM. For the same molecule, the TGI (U251 glioblastoma) was 22.2 µM, the GI50 (UACC-257 melanoma) was 6.22 µM and the TGI (UACC-257 melanoma) was 18.4 µM. The GI50 (UACC-62 melanoma) was 1.83 µM and the TGI (UACC-62 melanoma) was 3.92 µM.
